# Measured values taken from PubChem BioAssay AID1645865 (Buhrlage Lab, Dana-Farber Cancer Institute and Novartis …, 2021).
# pIC50: −log10 of the molar value. Activity calls are given as the source filed them.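 Rule for the calls: active = maximal inhibition of the USP30 enzyme reaching 30% or more across the dose series; inactive = the rest.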
# Molecular target: Ubiquitin carboxyl-terminal hydrolase 30 (Homo sapiens) (UniProt Q70CQ3)
# Assay: ubiquitin-specific protease 30 DUB inhibitors, concentration-effect, biochemical, validation of primary actives (AID 1645865)
# Conditions: purified USP30, Ub-rhodamine cleavage, fluorescence, 2 h
# Chain of Ubiquitin carboxyl-terminal hydrolase 30 (Homo sapiens) (Q70CQ3 whole entry, looked up): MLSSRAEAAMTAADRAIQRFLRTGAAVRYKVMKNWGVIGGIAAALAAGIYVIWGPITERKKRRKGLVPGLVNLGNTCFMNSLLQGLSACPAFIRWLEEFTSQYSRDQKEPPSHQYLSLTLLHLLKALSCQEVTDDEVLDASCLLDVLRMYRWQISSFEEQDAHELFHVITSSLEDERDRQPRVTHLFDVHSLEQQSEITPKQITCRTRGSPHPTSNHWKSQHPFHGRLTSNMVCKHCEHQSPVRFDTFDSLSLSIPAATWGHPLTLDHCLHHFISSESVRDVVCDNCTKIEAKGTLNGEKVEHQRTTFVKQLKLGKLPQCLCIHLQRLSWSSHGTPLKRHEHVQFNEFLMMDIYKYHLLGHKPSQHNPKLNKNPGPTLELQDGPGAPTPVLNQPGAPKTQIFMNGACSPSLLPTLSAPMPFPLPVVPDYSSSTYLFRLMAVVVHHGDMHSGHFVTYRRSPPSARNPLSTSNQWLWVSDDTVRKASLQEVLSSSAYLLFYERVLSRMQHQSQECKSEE
SMILES,IC50,pIC50
CCc1c(Cl)c(O)c(Cl)c(O)c1C(=O)O[C@H]1C(C)O[C@@H](OC/C2=C\C=C\CC(O)/C(C)=C/C(CC)C(O[C@@H]3OC(C)(C)[C@H](O)C(OC(=O)C(C)C)[C@@H]3O)/C(C)=C/C(C)=C/CC(C(C)O)OC2=O)[C@@H](OC)C1O (stereo partly drawn),> 50 µM (inactive),–
O=C1CC(C(=O)Nc2ccccc2Cl)n2nc(-c3ccccc3)cc2N1 (stereo not drawn),–,4.70
CCOc1ccc(NS(=O)(=O)c2ccc(NC(=O)Nc3ccccc3)cc2)cc1,–,4.76
Cc1noc(C)c1COc1cccc(C(=O)Nc2cc(Cl)ccc2-n2cncn2)c1,> 50 µM (inactive),–
COc1ccc(OC)c(NC(=O)C2=C(C)Nc3ncnn3C2c2ccccc2OCc2ccc(C)cc2)c1 (stereo not drawn),–,4.76
CCC(C)c1ccc(-c2csc(Cn3c(CN4CCN(C)CC4)nc4ccccc4c3=O)n2)cc1 (stereo not drawn),–,5.79
COc1ccc(NC2c3ccccc3C(=O)N2c2ccccn2)cc1 (stereo not drawn),> 50 µM (inactive),–
COc1ccc(C2SCC(=O)Nc3c2c(=O)[nH]n3C2CCCCC2)cc1 (stereo not drawn),–,4.52
Nc1c(C(=O)c2cccs2)oc2nc(-c3ccccc3)cc(-c3ccco3)c12,> 50 µM (inactive),–
CC(C)(C)N=C1Nc2ncccc2NC12CCCN(C(=O)c1ccccc1)C2 (stereo not drawn),> 50 µM (inactive),–
Cc1nc(-c2cccc(NC(=O)C3CCN(c4ccccc4)C3=O)c2)no1 (stereo not drawn),–,4.34
Cc1ccc(CNC(=O)c2cccc(N3C(=O)N4CCc5c([nH]c6ccccc56)[C@@]4(C)C3=O)c2)cc1,–,4.82
O=c1c(Nc2cccc(F)c2)nc2ccncc2n1Cc1ccccc1,–,4.58
CCOC(=O)[C@@H]1[C@@H](c2ccccc2)CN2CCN(C(=O)c3cnccn3)C[C@H]12,> 50 µM (inactive),–
Cc1cc(/C=C2/C(=N)N3C(c4ccccc4)=CSC3=NC2=O)c(C)n1-c1ccc(F)cc1,> 50 µM (inactive),–
O=C(CCc1ccccc1)N(CC1CCCO1)c1nc2ccccc2s1 (stereo not drawn),–,4.43
COc1cc(-c2ccno2)ccc1S(=O)(=O)Nc1ccccc1Cl,> 50 µM (inactive),–
COC(=O)c1cc(C#N)c(NCc2ccccc2)nc1C,–,5.00
CCCn1c(=O)c(-c2ccc(C(=O)NCc3ccc(OC)cc3)cc2)nc2cccnc21,–,5.74
O=C(c1ccco1)N1CCN=C1SCc1ccccc1F,> 50 µM (inactive),–
O=C(COC(=O)C1CCCN1C(=O)C12CC3CC(CC(C3)C1)C2)c1ccc(Cl)cc1 (stereo not drawn),–,5.19
COc1ccc(OCC(=O)Nc2ccc(C)c(OCc3cc(=O)n4ccccc4n3)c2)cc1,–,5.32
Cc1ccc(Nc2nc(Nc3cccc(Cl)c3)nc3nccnc23)cc1,> 50 µM (inactive),–

SMILES,IC50,pIC50
Cc1oc(-c2ccc(C(=O)NCC3COCCO3)cc2)nc1CN1CCc2ccccc21 (stereo not drawn),> 50 µM (inactive),–
COC(=O)c1ccc2c(=O)n(CCCCCC(=O)NCc3cccc(Cl)c3)c(=O)[nH]c2c1,–,5.77
COCCNC(=O)c1ccn(-c2ccc3ccc(-c4cnn(C)c4)cn23)n1,> 50 µM (inactive),–
Cc1cn[nH]c1C1COCCN1C(=O)c1ccc2ncccc2c1 (stereo not drawn),> 50 µM (inactive),–
COc1ccc(CCNC(=O)c2noc3c2CCc2sccc2-3)cc1OC,–,4.40
Cc1nc2cc(NC(=O)C3CN(C(=O)c4cnccn4)C3)ccc2s1,> 50 µM (inactive),–
COc1ccc(-c2cc(N3CCC(NC(=O)c4ccccc4)C3)n[nH]2)cc1 (stereo not drawn),–,4.70
N#Cc1c(-c2cccs2)cc(-c2cccs2)[nH]c1=O,> 50 µM (inactive),–
CC1CCc2sc(NC(=O)c3ccccc3Oc3ccccc3)c(C(N)=O)c2C1 (stereo not drawn),–,5.48
CCc1cc2cc3c(cc2nc1SCC(=O)Nc1cccc(C(C)=O)c1)OCO3,–,5.67
CC1=C(c2ccc(F)cc2)S(=O)(=O)NC1=NCC(=O)Nc1cccc(F)c1,–,4.70
O=C(Cn1c(NCc2ccccc2)nc2ccccc21)NCC(F)(F)F,–,4.48
COc1ccc(-c2ccnc(-c3ccc(OCc4cccc(F)c4)cc3)n2)cc1,–,4.42
O=c1c(-c2nc(C3CC3)no2)cccn1Cc1c(F)cccc1Cl,> 50 µM (inactive),–
O=C(CSc1nc2ccncc2[nH]1)Nc1ccc(Br)cc1F,–,4.56
CCN1C[C@@H]2C[C@]2(c2ccccc2OC)C(=O)c2ncccc21,> 50 µM (inactive),–
O=C(NC1CCN(Cc2ccccc2)CC1)c1[nH]nc2c1CCc1ccccc1-2,> 50 µM (inactive),–
O=C(NCc1ccco1)c1ccc2c(c1)N(Cc1cccc(F)c1)C(=O)c1ccccc1S2,> 50 µM (inactive),–
O=C(CSc1nnc(-c2ccncc2)n1Cc1ccccc1)c1ccc2[nH]c(O)cc2c1,> 50 µM (inactive),–
O=C(NCc1ccccc1Cl)c1ccc2cn[nH]c2c1,> 50 µM (inactive),–
Cc1cc(=O)n(CC(=O)NCc2ccccc2F)c2c1c(C)nn2-c1ccccc1,–,4.48
COc1ccc(NC(=O)CSc2oc(-c3ccc(C)cc3)nc2S(=O)(=O)c2ccc(Br)cc2)c(OC)c1,> 50 µM (inactive),–
Cc1ccc(C)c(-n2c(C)cc(/C=C3/C(=N)N4C(c5ccc(F)cc5)=CSC4=NC3=O)c2C)c1,> 50 µM (inactive),–

SMILES,IC50,pIC50
Cc1nc(-c2ccc(NC(=O)N3CCN(c4ccccn4)CC3)cc2)no1,> 50 µM (inactive),–
Cc1ccccc1NC(=O)CNc1nc(Nc2ccccc2)nc(Nc2ccccc2)n1,–,4.58
O=C(Cc1noc2ccccc12)NCC(=O)Nc1ccc(Cl)cc1,–,4.67
Cc1cc(O)c(=O)cc2c1C[C@H]1CC(C)(C)/C=C/C[C@@]3(C)Oc4cc(=O)c(O)cc(C)c4C[C@@H]3C[C@H](O)[C@]1(C)O2,> 50 µM (inactive),–
Cc1cc(NC(=O)Cn2c(=O)n(CCCCC(=O)NCc3ccco3)c(=O)c3ccccc32)ccc1Br,–,5.68
Cc1nnc(NC(=O)C2CCN(c3ccc(S(N)(=O)=O)cc3[N+](=O)[O-])CC2)o1,–,4.39
Cc1ccc(CN2CCCn3nc(C(=O)NCc4ccccc4C)cc3C2=O)cc1,–,4.50
COc1ccc(S(=O)(=O)N(C)Cc2cccs2)cc1OC,> 50 µM (inactive),–
Cc1ccc(-c2noc(-c3nnc(SCC(=O)NC4CCCC4)n3C)n2)cc1,–,5.65
CC(C)(C)C(=O)[C@@H]1[C@@H](C(=O)c2ccc3c(c2)OCO3)[C@@]2(C(=O)Nc3ccccc32)[C@H]2c3ccccc3C=CN12,> 50 µM (inactive),–
CC(C)c1ccc(NC(=O)COC(=O)c2ccc3[nH]c4c(c3c2)CCCC4)cc1,–,4.47
COc1ccc(-c2nc(-c3nnn(Cc4ccc(F)cc4)c3C)no2)c(OC)c1,–,5.05
O=C(c1cn(-c2cccc(F)c2)nn1)N1CCc2ccccc2C1,–,4.77
O=C(c1cc(Cl)ccc1Cl)N1CCN(c2ccc3nnc(-c4ccco4)n3n2)CC1,> 50 µM (inactive),–
Cc1ccc(NC(=O)c2nnn(-c3ccccc3)n2)cc1F,> 50 µM (inactive),–
O=C1CC(O)C(O)c2cccc(O)c21 (stereo not drawn),> 50 µM (inactive),–
O=C(COc1ccc(Cl)cc1Cl)Nc1ccc2[nH]c(=O)[nH]c2c1,–,5.39
COc1ccccc1NS(=O)(=O)c1cccc(NC(=O)CCc2nc3ccccc3s2)c1,–,5.40
Nc1ccc(NC(=O)c2cc3c(s2)CCC3)cc1[N+](=O)[O-],–,4.78
NS(=O)(=O)c1ccc(NC(=O)Cn2cnc3cc([N+](=O)[O-])ccc3c2=O)cc1,> 50 µM (inactive),–
CCC(C)NC(=O)Cn1c(=O)n(-c2ccccc2)c(=O)c2ccc(C(=O)NCc3ccco3)cc21 (stereo not drawn),–,4.54
CC(=O)N1Cc2ccccc2CC2(CCCN(CC3CCOCC3)C2)C1 (stereo not drawn),> 50 µM (inactive),–
